Test results taken from ChEMBL document CHEMBL2331276, “A novel class of 3-(phenoxy-phenyl-methyl)-pyrrolidines as potent and balanced norepinephrine and serotonin reuptake inhibitors: synthesis and structure-activity relationships” (Bioorg Med Chem Lett, 2013).

How the values were obtained:
[1] = in vitro; conditions: rat, liver microsomes
[2] = in vitro; conditions: human, liver microsomes
[3] = AUC in rat at 10 mg/kg, po; assay type: ADME, organism-based; set-up: dose 10 mg/kg, route oral; conditions: plasma
[4] = Oral bioavailability in rat at 10 mg/kg; assay type: ADME, organism-based; conditions: in vivo

Row | microsomal CLint [1] [µL/min/mg] | microsomal CLint [2] [µL/min/mg] | AUC [3] [ng·h/mL] | bioavailability [4] [%] | Compound
1 | 1990 | < 5 | – | – | COc1cc(Cl)ccc1O[C@@H](c1ccccc1)[C@H]1CCNC1
2 | – | < 5 | – | – | Clc1cccc(O[C@@H](c2ccccc2)[C@H]2CCNC2)c1Cl
3 | 185 | < 5 | – | – | Fc1ccc(O[C@@H](c2ccccc2)[C@H]2CCNC2)c(Cl)c1
4 | 5100 | 570 | – | – | CCOc1ccccc1O[C@@H](c1ccccc1)[C@@H]1CNCCO1 [ESREBOXETINE]
5 | – | < 5 | – | – | COc1cc([N+](=O)[O-])ccc1O[C@@H](c1ccccc1)[C@H]1CCNC1

The remaining lines, values behind:

Row | Compound | microsomal CLint [1] [µL/min/mg] | microsomal CLint [2] [µL/min/mg] | AUC [3] [ng·h/mL] | bioavailability [4] [%]
6 | Fc1ccc(F)c(O[C@@H](c2ccccc2)[C@H]2CCNC2)c1Cl | 1660 | 113 | – | –
7 | CCN(CC)C(=O)C1(c2ccccc2)CC1CN (stereo not drawn) | < 5 | < 5 | – | –
8 | Clc1cc(Cl)cc(O[C@@H](c2ccccc2)[C@H]2CCNC2)c1 | 4530 | < 5 | – | –
9 | Clc1ccc(Cl)c(O[C@@H](c2ccccc2)[C@H]2CCNC2)c1Cl | 4620 | < 5 | – | –
10 | Fc1cc(F)c(F)c(O[C@H](c2ccccc2)[C@@H]2CCNC2)c1F | 200 | < 5 | – | –
11 | Clc1ccc(Cl)c(O[C@H](c2ccccc2)[C@@H]2CCNC2)c1Cl | 4600 | < 5 | 70 | 6
12 | Clc1cc(Cl)c(Cl)c(O[C@H](c2ccccc2)[C@@H]2CCNC2)c1 | 100 | < 5 | – | –
13 | Fc1ccc(F)c(O[C@H](c2ccccc2)[C@@H]2CCNC2)c1Cl | 1340 | 115 | – | –
14 | Clc1cc(Cl)cc(O[C@H](c2ccccc2)[C@@H]2CCNC2)c1 | 21 | < 5 | – | –
